Patent US6773702B2, “Use of combretastatin A4 and its prodrugs as an immune enhancing therapy” (OXiGENE, Inc., priority 2000, dated 2004)
Values joined by “and” are separate entries in the source; they are usually repeats but may differ in a detail not shown here. Identical values can stand only once.

Columns and labels:
[1] = system: spleen cells isolated from BN7005-H1D2 tumor-bearing rats; test: In vitro proliferation of spleen cells from vaccinated tumor-bearing rats treated in vivo with CA4P (FIG. 1); parameters: species or system rat; conditions: CA4P 2 mg/kg 5 days a week + vaccination
[2] = system: spleen cells isolated from BN7005-H1D2 tumor-bearing rats; test: In vitro proliferative response of spleen cells after 20 days of in vivo CA4P at 5 or 2 mg/kg (FIG. 2A); parameters: species or system rat; conditions: 20 days daily treatment, H1D2-WT or IL-18 transfectant stimulator cells
Procedure: FIG. 2A illustrates the in vitro immune proliferative response of spleen cells isolated from BN7005-H1D2 tumor-bearing rats previously treated with a combination of active immunomodulatory gene therapy (IL-18 and IL-12 transfected tumor cells) and CA4P (5 or 2 mg/kg) in vivo. The cells were stimulated with untransfected (H1D2-WT) tumor cells or IL-18 (H1D2-IL18) transfected tumor cells after 20 days of tumor growth.
Results of in vitro studies indicate that the dose of Combretastatin A4 Prodrug that is administered is critical for obtaining a specific immunological effect. […] Proliferation of spleen immune cells was monitored by 3-H-thymidine incorporation (CPM) after 5 days incubation. […] Eight μm cryosections were examined directly in a fluorescence microscope and vessel volume was determined (Springer, MP., Ip, TK., and Blau, HM). Angiogenesis monitored by perfusion with space-filling microbead suspension (Mol. Ther. 1: 82-87, 2000). […]
In a second experiment represented in FIG. 2A, wild type H1D2-WT or IL-18 transfected (H1D2-IL-18) cells were used as immune stimulants to assess the in vitro proliferative response of spleen cells isolated from tumor-bearing rats previously treated in vivo with 2 or 5 mg/kg combretastatin A4 prodrug for 20 days. The spleen cells were cultured in RPMI medium and their growth monitored by the incorporation of tritiated thymidine into DNA. […]

[3] = system: BT4Cn tumor blood vessels; test: Tumor vascular shut-down, open tumor blood vessels 24 h after CA4P (FIG. 2B); type: in vivo, rat
Procedure: FIG. 2B illustrates the percentage of open tumor blood vessels in an excised tumor 24 hours after administration of various doses of CA4P to a BT4Cn tumor bearing rat.
Results of in vitro studies indicate that the dose of Combretastatin A4 Prodrug that is administered is critical for obtaining a specific immunological effect. The specific immunomodulatory properties of CA4P are only observed at a low dosage, whereas higher doses fail to remove the immunosuppressive effects of the established tumor or induce suppression of lymphocyte activity. […] Proliferation of spleen immune cells was monitored by 3-H-thymidine incorporation (CPM) after 5 days incubation. […] An analysis of tumor pathology was performed on BT4Cn tumor-bearing rats when the tumor had growth to a size of 300 mm^3. Rats received single intraperitoneal injections of various doses of CA4P. Twenty-four hours later they were injected with 0.25 ml of Fluo-Spheres bead in the tail vein and sacrificed after 3 min. Tumors were removed and prepared for cryosection. Eight μm cryosections were examined directly in a fluorescence microscope and vessel volume was determined (Springer, MP., Ip, TK., and Blau, HM). Angiogenesis monitored by perfusion with space-filling microbead suspension (Mol. Ther. 1: 82-87, 2000). […] Thus in a preferred embodiment, the dose at which CA4P is administered to achieve a desired immune enhancing effect without vascular shutdown is less than 5 mg/kg.

[4] = system: colon carcinoma H1D2-WT cells; test: Intrahepatic growth of colon carcinoma H1D2-WT, tumor volume after 4 weeks (Table 2); type: in vivo, rat
Procedure: Table 2 is a summary of intrahepatic growth of colon carcinoma H1D2-WT cells treated with low dose CA4P alone or in combination with immunomodulatory gene therapy, and with or without additional inhibitor. Tumor growth was initiated by inoculation beneath the liver capsule with 1×10^5 in vitro cultured BN7005-H1D2 wild type cells suspended in 50 μl RPMI medium. Drug administration (CA4P, L-NAME, Indomethacin) was initiated after 7-8 days when the tumor was macroscopically visible. CA4P was given intraperitoneally, 5 days a week. L-NAME was given by gavage twice a week on the day of immunization and the day after. Indomethacin was given by gavage 48 h after vaccination at a dose of 0.33 mg/kg. Immunization was performed by intraperitoneal administration on day 10 and day 17 using BN7005-H1D2 cells transfected with IL-18 or a mixture of IL-18 and IL-12 transfectants (2-3×10^6 viable cells per rat).
Wild-type (BN7005-H1D2) colon cancer cells (1×10^5 cells) were inoculated intrahepatically and CA4P drug treatment (2 and 5 mg/kg) began daily when the tumors were macroscopically visible. On day 10 and 17, vaccinations were administered intraperitoneally using […] cells transfected with IL-18 transfected cells or mixtures of IL-18 and IL-12 transfected cells (2-3×10^6 viable cells per rat). L-NAME and Indomethacin were also administered by gavage 48 h after vaccination at a dose of 0.33 mg/kg.

[5] = Half-life and estimated in vivo concentration of CA4P
Procedure: The purified adherent cells (6×10^5/microtiter well) were treated in vitro for 3 hours with 0.15 ug/ml CA4P before washing. […] These variables were used to choose an in vitro concentration that is equal to the average concentration in vivo after a 3 hour period. For example, after treatment with 2 mg/kg in vivo, the concentration would be a maximum of 0.18 ug/ml 1.5 hours later, and less than 1 ng/ml after 3 hours.

[6] = cited from earlier work
[7] = cited from earlier work; remark: listed apart in the source
[8] = CA4-P 2 mg/kg alone, no L-NAME, no immunization
[9] = CA4-P 2 mg/kg i.p. 5 days a week, no L-NAME, with immunization, phosphate disodium salt
[10] = CA4-P 2 mg/kg, with L-NAME gavage, with immunization
[11] = CA4-P 5 mg/kg, with L-NAME gavage, with immunization, phosphate disodium salt

## COc1ccc(/C=C\c2cc(OC)c(OC)c(OC)c2)cc1OP(=O)([O-])[O-].[Na+].[Na+] [CA4P, CA4 phosphate disodium salt]
[1]; spleen cells challenged with SEA, 5 of 8 (untreated 13%)
  Rats responding to SEA: 63%
[1]; spleen cells stimulated with autologous tumor cells, 7 of 18 (immunization alone 8%)
  Samples responding to tumor antigen challenge: 39%
[2]; CA4P 2 mg/kg
  Proliferative response of spleen cells (3-H-thymidine incorporation): particularly effective in enhancing the anti-tumor immune response
[2]; CA4P 5 mg/kg
  Proliferative response of spleen cells (3-H-thymidine incorporation): some enhancement of a proliferative response
[3]; 2 mg/kg
  Vascular shutdown: no vascular shut down could be observed
[3]; doses below 4 mg/kg, single i.p. injection, 24 h
  Vascular shutdown: no significant vascular shutdown
[3]; higher doses, 4-100 mg/kg in the rat
  Toxicity to microvessels and immune effect: toxic to microvessels and immunosuppressive
[4]; [8]
  Tumor volume after 4 weeks, Mean: 3834 mm^3
  Tumor volume after 4 weeks, Median: 4037 mm^3
[4]; [9]
  Tumor volume after 4 weeks, Mean: 3918 mm^3 and 5755 mm^3 and 5135 mm^3 and 3698 mm^3
  Tumor volume after 4 weeks, Median: 3780 mm^3 and 6195 mm^3 and 4275 mm^3 and 3393 mm^3
[4]; CA4-P 2 mg/kg, with L-NAME (+Indomethacin 0.33 mg/kg), with immunization, phosphate disodium salt
  Tumor volume after 4 weeks, Median: 2867 mm^3 and 1463 mm^3 and 1962 mm^3
[4]; [10]
  Tumor volume after 4 weeks, Mean: 5064 mm^3
  Tumor volume after 4 weeks, Median: 4792 mm^3
[4]; [11]
  Tumor volume after 4 weeks, Mean: 512 mm^3 and 561 mm^3
  Tumor volume after 4 weeks, Median: 426 mm^3 and 367 mm^3
[5]; 1.5 hours after treatment with 2 mg/kg in vivo, calculated from half-life and extracellular fluid 16.6% of body weight
  Concentration in extracellular fluid: ≤ 0.18 µg/mL
[5]; 3 hours after treatment with 2 mg/kg in vivo, calculated
  Concentration in extracellular fluid: less than 1 ng/ml
[6]
  Half-life in vivo: less than 15 min
[7]
  Solubility in water: readily soluble in water
